Laboratory results as given in patent US5320955A, “10'desmethoxystreptonigrin production by Streptomyces albus” (priority 1992, dated 1994).
Values after ≈ are worked out from the molar mass of the structure shown. Values joined by “and” are separate entries in the source; they are usually repeats but may differ in a detail not shown here. Equal values may be shown once. Read-outs that look alike come from different tables or passages of the source.

What was measured:
[1] = system: P388 murine leukemia; assay: In vivo tests in mice, intraperitoneally implanted P388 murine leukemia model; details: intraperitoneally implanted P388, nontoxic levels
From the text: ^+ In vivo tests in mice using the intraperitoneally implanted P388
lifespan compared to control groups at nontoxic levels of
10desmethoxystreptonigrin.

[2] = system: A2780S human ovarian cells; assay: cells; assay type: cell-based
Protocol: (§1) 10'-Desmethoxystreptonigrin was also tested for cytotoxicity in vitro against human tumor cell lines according to the method of Catino et al., "A microtitre cytotoxicity assay useful for the discovery of fermentation derived antitumor agents", Cancer Chemother., Pharmacol. 15: 240-243 (1985). Modification of the dye employed therein was made according to Scudiero et al., "Evaluation of a soluble tetrazolium/formazan assay for cell growth and drug sensitivity in culture using human and other tumor cell lines," Cancer Research 48:4827-4833,1 (1988). The assays were performed in triplicate against human ovarian (A2780DDP and A2780S) and colon (HCT-116, HCT/VM46 and HCT/VP35) tumor cell lines. Such cell lines are, for example, described by Long et al., "The effects of mitomycin on human colon carcinoma cells," J. Nat. Cancer Inst. 73: 787-792 (1984) (HCT-116) and Masuda et al., "Increased DNA repair as a mechanism of acquired resistance to cis-diamminedichloroplatinum (II) in human ovarian cancer cell lines," Cancer Research 48: 5713-5716 (1988) (A2780 ).

[3] = system: Staphylococcus aureus; assay: Antibacterial activity in vitro, agar dilution MIC; assay type: cell-based; details: 18 hours, read-out: Minimum Inhibitory Concentration (MIC)
Protocol: (§2) The following methodology was used to determine the minimum inhibitory concentration (hereinafter referred to as MIC) of 10'-desmethoxystreptonigrin against bacteria. The test organisms were grown in 20 ml of Antiobiotic Assay Broth (Difco) by inoculating the broth (in tubes) with a loopful of the organism from a BHI (Difco) agar slant. The inoculated tubes were incubated at 37° C. for 18 to 24 hours. These cultures were assumed to contain 10^9 colony forming units (CFU) per ml. The cultures were diluted 1:100 to give a final inoculum level of 10^7 CFU; dilutions were made with Yeast-Beef Broth (Difco). The test compound was dissolved in an appropriate diluent at a concentration of 1,000 μg/ml. Two-fold dilutions were made in Yeast-Beef Broth (Difco), resulting in a range from 1000 μg/ml to 0.5 μg/ml. A 1.5 ml portion of each dilution was placed into individual petri dishes to which 13.5 ml of K-10 agar was added. The composition of K-10 agar is:
(§3) The medium was sterilized at 121° C. for 15 minutes at 15 lbs. psi.
(§4) The final drug concentration in the agar ranged from 100 μg/mL to 0.05 μg/mL. Organism growth control plates containing agar only were prepared and inoculated before and after the test plates. The organisms were applied to the agar surface of each plate with a Denly Multipoint Inoculator (which delivers approximately 0.001 mL of each inoculum) resulting in a final inoculum of 10^4 CFU on the agar plate.
(§5) The plates were incubated at 37° C. for 18 hours and the MICs determined. The MIC is the lowest concentration of compound inhibiting growth of the organism.

[4] = system: Enterobacter aerogenes; assay: Antibacterial activity in vitro, agar dilution MIC; assay type: cell-based; details: Klebsiella aerogenes, SC10078; strain SC# 10078; 37° C., 18 hours; read-out: Minimum Inhibitory Concentration (MIC)
Protocol: as §2, §3, §4, §5

[5] = system: Bacillus subtilis; assay: Antibacterial activity in vitro, agar dilution MIC; assay type: cell-based; details: SC3777, strain SC# 3777, 37° C., 18 hours, read-out: Minimum Inhibitory Concentration (MIC)
Protocol: as §2, §3, §4, §5

[6] = system: Mycobacterium fortuitum; assay: Antibacterial activity in vitro, agar dilution MIC; assay type: cell-based; details: Mycolicibacterium fortuitum, SC8571; strain SC# 8571; 37° C., 18 hours; read-out: Minimum Inhibitory Concentration (MIC)
Protocol: as §2, §3, §4, §5

[7] = system: Enterobacter cloacae; assay: Antibacterial activity in vitro, agar dilution MIC; assay type: cell-based; details: SC8236, strain SC# 8236, 37° C., 18 hours, read-out: Minimum Inhibitory Concentration (MIC)
Protocol: as §2, §3, §4, §5

[8] = system: Proteus mirabilis; assay: Antibacterial activity in vitro, agar dilution MIC; assay type: cell-based; details: SC3855, strain SC# 3855, 37° C., 18 hours, read-out: Minimum Inhibitory Concentration (MIC)
Protocol: as §2, §3, §4, §5

[9] = system: Streptococcus faecalis; assay: Antibacterial activity in vitro, agar dilution MIC; assay type: cell-based; details: Enterococcus faecalis, 37° C., 18 hours, read-out: Minimum Inhibitory Concentration (MIC)
Protocol: as §2, §3, §4, §5

[10] = system: Escherichia coli; assay: Antibacterial activity in vitro, agar dilution MIC; assay type: cell-based; details: 18 hours, read-out: Minimum Inhibitory Concentration (MIC)
Protocol: as §2, §3, §4, §5

[11] = system: Pseudomonas cepacia; assay: Antibacterial activity in vitro, agar dilution MIC; assay type: cell-based; details: Burkholderia cepacia, SC14164; strain SC# 14164; 37° C., 18 hours; read-out: Minimum Inhibitory Concentration (MIC)
Protocol: as §2, §3, §4, §5

[12] = system: Acinetobacter anitratus; assay: Antibacterial activity in vitro, agar dilution MIC; assay type: cell-based; details: Acinetobacter calcoaceticus, SC14207; strain SC# 14207; 37° C., 18 hours; read-out: Minimum Inhibitory Concentration (MIC)
Protocol: as §2, §3, §4, §5

[13] = system: Listerella monocytogenes; assay: Antibacterial activity in vitro, agar dilution MIC; assay type: cell-based; details: strain SC# 8523; 37° C., 18 hours; read-out: Minimum Inhibitory Concentration (MIC)
Protocol: as §2, §3, §4, §5

[14] = system: Nocardia autotrophica; assay: Antibacterial activity in vitro, agar dilution MIC; assay type: cell-based; details: Pseudonocardia autotrophica, SC8994; strain SC# 8994; 37° C., 18 hours; read-out: Minimum Inhibitory Concentration (MIC)
Protocol: as §2, §3, §4, §5

[15] = system: Micrococcus luteus; assay: Antibacterial activity in vitro, agar dilution MIC; assay type: cell-based; details: SC2495, strain SC# 2495, 37° C., 18 hours, read-out: Minimum Inhibitory Concentration (MIC)
Protocol: as §2, §3, §4, §5

[16] = system: Shigella sonnei; assay: Antibacterial activity in vitro, agar dilution MIC; assay type: cell-based; details: SC8449, strain SC# 8449, 37° C., 18 hours, read-out: Minimum Inhibitory Concentration (MIC)
Protocol: as §2, §3, §4, §5

[17] = system: Salmonella typhosa; assay: Antibacterial activity in vitro, agar dilution MIC; assay type: cell-based; details: Salmonella enterica, SC1195 / TYPHOSA; strain SC# 1195; 37° C., 18 hours; read-out: Minimum Inhibitory Concentration (MIC)
Protocol: as §2, §3, §4, §5

[18] = system: Serratia marcescens; assay: Antibacterial activity in vitro, agar dilution MIC; assay type: cell-based; details: SC9783, strain SC# 9783, 37° C., 18 hours, read-out: Minimum Inhibitory Concentration (MIC)
Protocol: as §2, §3, §4, §5

[19] = system: Streptococcus agalactiae; assay: Antibacterial activity in vitro, agar dilution MIC; assay type: cell-based; details: 18 hours, read-out: Minimum Inhibitory Concentration (MIC)
Protocol: as §2, §3, §4, §5

[20] = system: Pseudomonas aeruginosa; assay: Antibacterial activity in vitro, agar dilution MIC; assay type: cell-based; details: read-out: Minimum Inhibitory Concentration (MIC)
Protocol: as §2, §3, §4, §5

[21] = system: Proteus vulgaris; assay: Antibacterial activity in vitro, agar dilution MIC; assay type: cell-based; details: SC9416, strain SC# 9416, 37° C., 18 hours, read-out: Minimum Inhibitory Concentration (MIC)
Protocol: as §2, §3, §4, §5

[22] = system: Klebsiella pneumoniae; assay: Antibacterial activity in vitro, agar dilution MIC; assay type: cell-based; details: 18 hours, read-out: Minimum Inhibitory Concentration (MIC)
Protocol: as §2, §3, §4, §5

[23] = system: Acinetobacter calcoaceticus; assay: Antibacterial activity in vitro, agar dilution MIC; assay type: cell-based; details: SC8333, strain SC# 8333, 37° C., 18 hours, read-out: Minimum Inhibitory Concentration (MIC)
Protocol: as §2, §3, §4, §5

[24] = biological target: protein-cysteine farnesyltransferase; assay: Inhibition of farnesylation of p21 ras protein; assay type: biochemical; details: assay of Manne et al.; read-out: IC50 in inhibiting the farnesylation of p21 ras protein
[25] = system: HCT/VP35 human colon cells; assay: In vitro cytotoxicity vs. human tumor cell lines; assay type: cell-based; details: in triplicate, each printed
Protocol: as §1

[26] = system: HCT-116 human colon cells; assay: In vitro cytotoxicity vs. human tumor cell lines; assay type: cell-based; details: in triplicate, each printed
Protocol: as §1

[27] = system: HCT/VM46 human colon cells; assay: In vitro cytotoxicity vs. human tumor cell lines; assay type: cell-based; details: HCT/VM46, resistant to teniposide, in triplicate, each printed
Protocol: as §1

[28] = background statement; cited from earlier work
[29] = system: tumor; details: background statement; cited from earlier work

COC1=C(N)C(=O)c2nc(-c3nc(C(=O)O)c(C)c(-c4cccc(OC)c4O)c3N)ccc2C1=O [10'-Desmethoxystreptonigrin, 5'-amino-6'-(7-amino-5,8-dihydro-6-methoxy-5,8-dioxo-2-quinolyl)-4'-(8'-hydroxy-9'-methoxyphenyl)-3'-methyl-2'-pyridinecarboxylic acid]
increase in lifespan compared to control groups [1]: no statistically significant increase | IC50 ([2]; Homo sapiens, read-out: IC50 cytotoxicity, A2780S, in triplicate, each printed): 0.001 µg/mL (≈ 0.0021 µM) | IC50 cytotoxicity ([2]; in triplicate, each printed): 0.002 µg/mL and < 0.001 µg/mL | MIC ([3]; SC1276, strain SC# 1276, 37° C.): 0.4 µg/mL (≈ 0.84 µM) | MIC ([3]; SC2399, strain SC# 2399, 37° C.): 0.2 µg/mL (≈ 0.42 µM) | MIC ([3]; SC2400, strain SC# 2400, 37° C.): 0.2 µg/mL (≈ 0.42 µM) | MIC ([3]; SC10165, strain SC# 10165, 37° C.): 0.2 µg/mL (≈ 0.42 µM) | MIC [4]: 25 µg/mL (≈ 52.5 µM) | MIC [5]: 0.2 µg/mL (≈ 0.42 µM) | MIC [6]: 50 µg/mL (≈ 105 µM) | MIC [7]: > 100 µg/mL | MIC [8]: 3.1 µg/mL (≈ 6.51 µM) | MIC ([9]; SC9011, strain SC# 9011): 1.6 µg/mL (≈ 3.36 µM) | MIC ([9]; SC9610, strain SC# 9610): 1.6 µg/mL (≈ 3.36 µM) | MIC ([10]; SC8294, strain SC# 8294, 37° C.): 3.1 µg/mL (≈ 6.51 µM) | MIC ([10]; SC10857, strain SC# 10857, 37° C.): 0.8 µg/mL (≈ 1.68 µM) | MIC ([10]; SC10896, strain SC# 10896, 37° C.): 0.4 µg/mL (≈ 0.84 µM) | MIC ([10]; SC10909, strain SC# 10909, 37° C.): < 0.05 µg/mL | MIC ([10]; SC12864, strain SC# 12864, 37° C.): 1.6 µg/mL (≈ 3.36 µM) | MIC [11]: > 25 µg/mL | MIC [12]: 3.1 µg/mL (≈ 6.51 µM) | MIC [13]: 1.6 µg/mL (≈ 3.36 µM) | MIC [14]: 3.1 µg/mL (≈ 6.51 µM) | MIC [15]: 0.4 µg/mL (≈ 0.84 µM) | MIC [16]: 1.6 µg/mL (≈ 3.36 µM) | MIC [17]: 1.6 µg/mL (≈ 3.36 µM) | MIC [18]: 6.3 µg/mL (≈ 13.2 µM) | MIC ([19]; SC9287, strain SC# 9287, 37° C.): 1.6 µg/mL (≈ 3.36 µM) | MIC ([19]; SC14008, strain SC# 14008, 37° C.): 1.6 µg/mL (≈ 3.36 µM) | MIC ([20]; SC8329, 18 h): 6.3 µg/mL (≈ 13.2 µM) | MIC ([20]; SC9545, strain SC# 9545, 37° C., 18 hours): 1.6 µg/mL (≈ 3.36 µM) | MIC [21]: 0.4 µg/mL (≈ 0.84 µM) | MIC ([22]; SC9527, strain SC# 9527, 37° C.): 3.1 µg/mL (≈ 6.51 µM) | MIC ([22]; SC10440, strain SC# 10440, 37° C.): 3.1 µg/mL (≈ 6.51 µM) | MIC [23]: > 100 µg/mL | IC50 [24]: 23.5 µM | IC50 cytotoxicity ([25]; HCT/VP35, resistant to etoposide): 0.002 µg/mL (≈ 0.0042 µM) | IC50 ([25]; Homo sapiens, HCT/VP35, HCT/VP35, resistant to etoposide): 0.003 µg/mL (≈ 0.0063 µM) | IC50 cytotoxicity ([26]; HCT-116): 0.003 µg/mL (≈ 0.0063 µM) | IC50 ([26]; Homo sapiens, HCT-116, HCT-116): 0.006 µg/mL (≈ 0.0126 µM) | IC50 cytotoxicity [27]: 0.002 µg/mL and < 0.001 µg/mL | IC50 ([27]; Homo sapiens): 0.001 µg/mL (≈ 0.0021 µM)

COC1=C(N)C(=O)c2nc(-c3nc(C(=O)O)c(C)c(-c4ccc(OC)c(OC)c4O)c3N)ccc2C1=O [streptonigrin, 5'-amino-6'-(7-amino-5,-8-dihydro-6-methoxy-5,8-dioxo-2-quinolyl)-4'-(8'-hydroxy-9',10'-dimethoxyphenyl)-3'-methyl-2'-pyridinecarboxylic acid]
toxic effect, for example, in bone marrow depression [28]: significant toxic effect | activity as an antitumor antibiotic [29]: has shown activity as an antitumor antibiotic
